Laboratory results as given in patent US10221144B2, “Antibacterial compounds having broad spectrum of activity” (priority 2014, dated 2019).
Where two headings read alike, the source gives them in different places.

Experiments:
Type in all cases: biochemical
E. coli Topoisomerase IV = target: T1, E. coli Topoisomerase IV (Escherichia coli, UniProt P0AFI2+P20083); assay: Topoisomerase IV decatenation assay (E. coli); conditions: for inhibition at 100 µM / % inhibition Topo IV / inhibition at 50 µM: n/a = not active; for inhibition at 100 µM / inhibition at 50 µM: read-out: % inhibition Topo IV
T1 construct: purchased Inspiralis, UK
Experimental: (§1) The above compounds were tested for the inhibition of the enzyme DNA gyrase in a gyrase supercoiling assay and for the inhibition of the enzyme topoisomerase IV in a decatenation assay, in both Gram positive and Gram negative bacteria, according to the following methods.
(§2) Both the assays were carried out according to a set-up method modified from the article to Blanche F, et al. “Differential Behaviors of Staphylococcus aureus and Escherichia coli Type II DNA Topoisomerases”, Antimicrob. Agents Chemother., 1996, Vol. 40, No. 12 p. 2714-2720.
(§3) The compounds were screened at single concentration (200, 100 or 50 μM), in duplicate.
(§4) S. aureus and E. coli Topoisomerase IV decatenation kits (Inspiralis, UK) were used. A master mix with a total volume sufficient for the number of reactions to perform was prepared with the following reagents: 5× assay buffer (50 mM HEPES-KOH (pH 7.6), 100 mM potassium glutamate, 10 mM magnesium acetate, 10 mM DTT, 1 mM ATP, 50 μg/ml albumin), kDNA substrate (200 ng/reaction), RNase-DNase free water. Aliquots of this mix were dispensed in each tube, then 10× compound stock solutions or vehicle control (DMSO), were added in each reaction tube.
(§5) Reaction was started with Topoisomerase IV enzyme (0.5 U/reaction) addition.
(§6) A sample added with an equal volume of dilution buffer was used as negative control (without enzyme).
(§7) The reaction tubes were gentle vortexed and incubated 30 minutes at 37° C. Each reaction was stopped by adding 30 μl of Stop Buffer and 30 μl of chloroform/isoamyl alcohol (24/1), briefly vortexed for 5-10 seconds and centrifuged at 20000×g for 2 minutes. Samples taken from the upper phase were loaded into 1% agarose gel and subjected to electrophoresis for 1 hour at 80V constant voltage in TAE (40 mM Tris-acetate, 2 mM EDTA).
(§8) Data acquisition and analysis. Due to the high molecular mass, kDNA could not enter an agarose gel under normal electrophoresis conditions, but remained in the wells. In the presence of Topo IV topoisomerase mini-circles (2.5 Kb) were released from kDNA by decatenation and were quickly and easily resolved in the gel at relatively high voltages.
(§9) Bands were visualized by ethidium bromide staining (dil 1:20000) for 30 minutes followed by destaining in distilled water for 10 minutes.
(§10) For single concentration screening assay, in order to evaluate the compounds activity on the enzymes, the bands of decatenated DNAs in the gel were photographed by a digital imaging system ImageQuant LAS 4000 (GE Healthcare) according to manufacturer's instructions.
(§11) The fluorescent intensity of each band was analyzed by ImageQuant TL software and it was expressed as volume (volume of the uncalibrated quantity of material in the image feature after subtraction of the background intensity by using rolling ball method).
(§12) Each band intensity was compared, as percentage, to vehicle sample band intensity, which served as positive control, on the same gel.
(§13) Inhibitory activity was expressed as percent of inhibition versus the positive control.
(§14) The supercoiled or decatenated DNA bands obtained as described in Example 1 were analysed as follows.
(§15) Bands were analyzed by gel documentation equipment (Syngene, Cambridge, UK) and quantitated using Syngene Gene Tools software. Raw gel data (fluorescent band volumes) collected from Syngene, GeneTools gel analysis software were converted to a percentage of the 100% control (the fully supercoiled or decatenated DNA band). […] The IC50 data were calculated by using the global curve fit non-linear regression tool by selecting the Single, 2 Parameter fit function from the Exponential Decay equation category.

S. aureus DNA gyrase = target: T2, S. aureus DNA gyrase (Staphylococcus aureus, UniProt P0A0K8+P20831); assay: DNA gyrase supercoiling assay (S. aureus); conditions: for inhibition at 100 µM / % inhibition DNA gyrase / inhibition at 50 µM: n/a = not active
T2 construct: purchased Inspiralis, UK
Experimental: as §1, §2, §3
(§16) Reagents from S. aureus and E. coli Gyrase Supercoiling Assay kits (Inspiralis, UK) were used. A master mix with a total volume sufficient for the number of reactions to perform was prepared with the following reagents: 5× assay buffer, relaxed pBR322 substrate (0.5 μg/reaction), RNase-DNase free water. Aliquotes of this mix were dispensed in each tube, then 10× compound stock solutions or vehicle control (DMSO), were added to each reaction tube.
(§17) Reaction was started with E. Coli (2 U/reaction) or S. aureus (1 U/reaction) gyrase enzyme addition.
as §6
(§18) The reaction tubes were gentle vortexed and incubated 30 minutes at 37° C. Each reaction was stopped by adding 30 μl of Stop Buffer and 30 μl chloroform/isoamyl alcohol (24/1), briefly vortexed for 5-10 seconds and centrifuged at 20000×g for 2 minutes. Samples were loaded onto 1% agarose gel and subjected to electrophoresis for 1 hour at 80V constant voltage in TAE (40 mM Tris-acetate, 2 mM EDTA).
(§19) Data acquisition and analysis. Treatment of relaxed pBR322 with DNA gyrase converted the relaxed topoisomers (DNAs of different linking number) to the supercoiled form of the plasmid, which migrates faster on an agarose gel. An upper band might also be visible, which consists of open-circular (nicked) DNA which is present in the relaxed substrate but co-migrates with some of the relaxed topoisomers.
(§20) Bands were visualized by ethidium bromide staining (dilution 1:20000) for 30 minutes followed by destaining in distilled water for 10 minutes.
(§21) In order to evaluate the compounds activity on the enzyme, the bands of supercoiled DNAs in the gel were photographed by a digital imaging system ImageQuant LAS 4000 (GE Healthcare) according to manufacturer's instructions.
as §11, §12, §13, §14, §15

E. coli DNA gyrase = target: T3, E. coli DNA gyrase (Escherichia coli, UniProt P0AES4+P0AES6); assay: DNA gyrase supercoiling assay (E. coli); conditions: for inhibition at 100 µM / % inhibition DNA gyrase / inhibition at 50 µM: n/a = not active
T3 construct: purchased Inspiralis, UK
Experimental: as §1, §2, §3, §16, §17, §6, §18, §19, §20, §21, §11, §12, §13, §14, §15

[1] = target: T4, S. aureus Topoisomerase IV (Staphylococcus aureus, UniProt P0C1S7+P0C1U9); assay: Topoisomerase IV decatenation assay (S. aureus)
T4 construct: purchased Inspiralis, UK
Experimental: as §1, §2, §3, §4, §5, §6, §7, §8, §9, §10, §11, §12, §13, §14, §15

[2] = E. coli, concentration-response curve, eight half-log concentrations 0.1 to 300 μM, read-out: IC50 Topo IV
[3] = S. aureus, concentration-response curve, eight half-log concentrations 0.1 to 300 μM, read-out: IC50 DNA gyrase
[4] = E. coli, concentration-response curve, eight half-log concentrations 0.1 to 300 μM, read-out: IC50 DNA gyrase
[5] = S. aureus, concentration-response curve, eight half-log concentrations 0.1 to 300 μM, read-out: IC50 Topo IV
[6] = S. aureus, conc. 50 μM, n/a = not active, read-out: % inhibition Topo IV

T1 sequence (P20083 whole entry): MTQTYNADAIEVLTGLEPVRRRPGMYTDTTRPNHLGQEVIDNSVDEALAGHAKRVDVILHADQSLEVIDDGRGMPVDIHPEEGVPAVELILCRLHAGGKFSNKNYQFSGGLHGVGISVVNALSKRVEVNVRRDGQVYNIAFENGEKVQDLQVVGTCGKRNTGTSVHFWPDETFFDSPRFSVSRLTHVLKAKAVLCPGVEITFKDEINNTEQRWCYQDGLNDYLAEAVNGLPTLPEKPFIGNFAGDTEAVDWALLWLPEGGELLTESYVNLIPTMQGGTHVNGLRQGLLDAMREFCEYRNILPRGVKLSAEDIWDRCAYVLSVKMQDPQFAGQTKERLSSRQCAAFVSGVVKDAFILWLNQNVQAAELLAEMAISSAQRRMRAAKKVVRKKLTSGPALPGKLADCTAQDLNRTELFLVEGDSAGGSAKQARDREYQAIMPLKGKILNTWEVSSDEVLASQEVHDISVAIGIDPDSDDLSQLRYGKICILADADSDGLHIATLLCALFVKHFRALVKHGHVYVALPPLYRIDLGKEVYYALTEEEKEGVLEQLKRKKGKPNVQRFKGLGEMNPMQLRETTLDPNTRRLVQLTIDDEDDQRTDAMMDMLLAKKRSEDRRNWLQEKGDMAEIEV
T1 sequence (P0AFI2 whole entry): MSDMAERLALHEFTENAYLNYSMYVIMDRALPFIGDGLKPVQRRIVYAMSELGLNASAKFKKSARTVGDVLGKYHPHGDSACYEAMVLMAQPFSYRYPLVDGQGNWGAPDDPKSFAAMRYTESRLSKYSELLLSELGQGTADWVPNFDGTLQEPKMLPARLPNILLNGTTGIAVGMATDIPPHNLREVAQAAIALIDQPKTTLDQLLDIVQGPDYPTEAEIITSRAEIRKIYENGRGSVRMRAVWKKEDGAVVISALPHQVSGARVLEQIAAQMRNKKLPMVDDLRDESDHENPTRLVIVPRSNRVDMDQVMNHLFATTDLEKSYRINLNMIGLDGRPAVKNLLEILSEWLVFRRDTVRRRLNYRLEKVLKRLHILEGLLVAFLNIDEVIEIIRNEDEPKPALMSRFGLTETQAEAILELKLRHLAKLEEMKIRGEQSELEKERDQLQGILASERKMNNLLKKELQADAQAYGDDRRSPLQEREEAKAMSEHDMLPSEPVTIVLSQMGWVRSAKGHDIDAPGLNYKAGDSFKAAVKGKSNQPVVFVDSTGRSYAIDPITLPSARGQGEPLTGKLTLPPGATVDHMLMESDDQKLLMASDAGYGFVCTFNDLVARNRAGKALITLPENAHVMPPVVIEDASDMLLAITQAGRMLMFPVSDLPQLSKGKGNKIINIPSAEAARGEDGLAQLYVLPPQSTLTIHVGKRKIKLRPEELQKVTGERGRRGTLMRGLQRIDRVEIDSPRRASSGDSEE
T3 sequence (P0AES4 whole entry, one chain of several): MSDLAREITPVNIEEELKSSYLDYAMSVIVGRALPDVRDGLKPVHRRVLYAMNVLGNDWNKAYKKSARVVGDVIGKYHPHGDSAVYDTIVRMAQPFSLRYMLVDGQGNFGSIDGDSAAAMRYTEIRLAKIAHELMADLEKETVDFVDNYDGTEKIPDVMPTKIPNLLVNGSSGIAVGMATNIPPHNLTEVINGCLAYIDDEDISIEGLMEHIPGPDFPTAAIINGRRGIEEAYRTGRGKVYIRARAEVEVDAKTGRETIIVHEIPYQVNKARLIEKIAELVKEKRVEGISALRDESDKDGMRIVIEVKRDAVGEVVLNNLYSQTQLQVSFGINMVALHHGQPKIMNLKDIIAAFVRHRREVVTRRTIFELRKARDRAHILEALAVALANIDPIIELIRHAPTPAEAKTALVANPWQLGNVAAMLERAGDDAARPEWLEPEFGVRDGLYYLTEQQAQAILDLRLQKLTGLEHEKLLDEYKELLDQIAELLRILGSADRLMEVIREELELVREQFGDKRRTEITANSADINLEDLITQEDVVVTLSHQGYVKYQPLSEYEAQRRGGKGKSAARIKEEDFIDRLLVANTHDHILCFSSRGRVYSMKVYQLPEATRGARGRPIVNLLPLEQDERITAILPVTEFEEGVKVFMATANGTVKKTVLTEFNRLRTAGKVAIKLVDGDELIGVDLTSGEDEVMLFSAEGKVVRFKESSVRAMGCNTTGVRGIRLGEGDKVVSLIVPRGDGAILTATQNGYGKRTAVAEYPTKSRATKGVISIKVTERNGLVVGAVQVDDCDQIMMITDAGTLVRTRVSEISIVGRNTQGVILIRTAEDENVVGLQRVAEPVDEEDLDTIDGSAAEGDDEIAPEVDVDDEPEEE
T2 sequence (P0A0K8 whole entry): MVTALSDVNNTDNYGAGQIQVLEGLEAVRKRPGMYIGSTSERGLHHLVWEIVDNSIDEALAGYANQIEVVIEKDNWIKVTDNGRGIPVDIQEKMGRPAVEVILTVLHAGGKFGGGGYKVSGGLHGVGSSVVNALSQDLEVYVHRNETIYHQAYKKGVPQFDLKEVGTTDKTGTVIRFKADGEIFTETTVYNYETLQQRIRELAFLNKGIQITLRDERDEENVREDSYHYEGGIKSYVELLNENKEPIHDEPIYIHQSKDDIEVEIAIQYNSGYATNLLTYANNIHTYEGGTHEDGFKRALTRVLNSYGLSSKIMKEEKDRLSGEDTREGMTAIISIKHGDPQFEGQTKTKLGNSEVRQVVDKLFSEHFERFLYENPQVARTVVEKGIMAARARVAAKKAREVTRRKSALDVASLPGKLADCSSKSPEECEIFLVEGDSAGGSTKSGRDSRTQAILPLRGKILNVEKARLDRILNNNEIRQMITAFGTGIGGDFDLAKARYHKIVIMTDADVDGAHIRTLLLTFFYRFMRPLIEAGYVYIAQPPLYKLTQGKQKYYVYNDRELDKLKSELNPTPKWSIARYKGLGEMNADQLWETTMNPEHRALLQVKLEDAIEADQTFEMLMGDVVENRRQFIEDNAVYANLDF
T2 sequence (P20831 whole entry): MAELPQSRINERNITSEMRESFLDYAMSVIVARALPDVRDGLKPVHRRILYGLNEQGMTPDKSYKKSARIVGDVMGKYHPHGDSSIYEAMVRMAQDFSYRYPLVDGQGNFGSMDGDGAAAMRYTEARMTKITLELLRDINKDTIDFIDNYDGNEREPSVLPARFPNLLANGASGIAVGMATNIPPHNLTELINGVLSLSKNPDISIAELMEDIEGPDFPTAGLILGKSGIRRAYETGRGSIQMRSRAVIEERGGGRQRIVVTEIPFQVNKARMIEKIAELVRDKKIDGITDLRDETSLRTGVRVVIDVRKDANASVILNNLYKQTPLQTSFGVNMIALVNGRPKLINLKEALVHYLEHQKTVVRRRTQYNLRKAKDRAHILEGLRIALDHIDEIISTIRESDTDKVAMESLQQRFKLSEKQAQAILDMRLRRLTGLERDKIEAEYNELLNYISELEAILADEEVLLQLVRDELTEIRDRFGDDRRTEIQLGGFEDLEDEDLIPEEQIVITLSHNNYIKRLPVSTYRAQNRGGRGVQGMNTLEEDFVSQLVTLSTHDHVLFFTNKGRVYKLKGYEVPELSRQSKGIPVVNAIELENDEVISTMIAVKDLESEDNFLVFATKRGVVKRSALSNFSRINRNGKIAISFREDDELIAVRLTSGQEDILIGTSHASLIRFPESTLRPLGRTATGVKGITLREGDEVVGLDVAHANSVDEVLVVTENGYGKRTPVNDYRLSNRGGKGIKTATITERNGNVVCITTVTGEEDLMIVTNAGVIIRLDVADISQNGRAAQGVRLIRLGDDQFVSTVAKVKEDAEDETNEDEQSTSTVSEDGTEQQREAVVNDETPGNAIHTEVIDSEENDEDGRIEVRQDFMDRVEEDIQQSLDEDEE

Row | Compound | IC50 (E. coli Topoisomerase IV) [µM] | IC50 (S. aureus DNA gyrase) [µM] | IC50 (E. coli DNA gyrase) [µM] | inhibition at 50 µM (E. coli Topoisomerase IV; E. coli, conc. 50 μM) [%] | inhibition at 50 µM (S. aureus DNA gyrase; S. aureus, conc. 50 μM) [%] | inhibition at 50 µM (E. coli DNA gyrase; E. coli, conc. 50 μM) [%] | other results
1 | O=c1cc(NCC(O)CN2CCN(c3nccc4ccccc34)CC2)c2ccccc2o1 (racemic) [Compound 59, 4-({2-hydroxy-3-[4-(isoquinolin-1-yl)piperazin-1-yl]propyl}amino)-2H-chromen-2-one] | 16.1 | 4.4 | 1.2 |  |  |  | inhibition at 100 µM (E. coli Topoisomerase IV; E. coli, conc. 100 μM): 100%; inhibition at 100 µM (S. aureus DNA gyrase; S. aureus, conc. 100 μM): 90%; inhibition at 100 µM (E. coli DNA gyrase; E. coli, conc. 100 μM): 81%; IC50 [1]: 18.5 µM; inhibition at 100 µM ([1]; S. aureus, conc. 100 μM, n/a = not active, read-out: % inhibition Topo IV): 77%
2 | 7-methyl-1-chloroisoquinoline [Compound 72] |  |  |  |  |  |  | % inhibition Topo IV (E. coli Topoisomerase IV; E. coli, conc. 100 μM): 91%; IC50 (E. coli Topoisomerase IV; [2]): 3.8 µM; % inhibition DNA gyrase (S. aureus DNA gyrase; S. aureus, conc. 100 μM): 97%; IC50 (S. aureus DNA gyrase; [3]): 9.6 µM; % inhibition DNA gyrase (E. coli DNA gyrase; E. coli, conc. 100 μM): 98%; IC50 (E. coli DNA gyrase; [4]): 2.6 µM; % inhibition Topo IV ([1]; S. aureus, conc. 100 μM, n/a = not active): 76%; IC50 [1, 5]: 52 µM
3 | CCOC(=O)C1CN(c2nccc3ccc(F)cc23)CCC1NCc1cc2c(=O)oc3ccccc3c2[nH]1 (racemic) [Compound 184, ethyl 1-(7-fluoroisoquinolin-1-yl)-4-{[(4-oxo-1,4-dihydro[1]benzopyrano[4,3-b]pyrrol-2-yl)methyl]amino}piperidine-3-carboxylate] |  |  |  | 58 | 83 | 68 | inhibition at 50 µM ([1]; read-out: % inhibition Topo IV): 69%
4 | COc1ccc2cc(F)nc(N3CCN(CC(O)CNc4cc(=O)oc5ccc(F)cc45)CC3)c2c1 (centres unmarked) [Compound 203, 6-fluoro-4-({3-[4-(3-fluoro-7-methoxyisoquinolin-1-yl)piperazin-1-yl]-2-hydroxypropyl}amino)-2H-1-benzopyran-2-one] |  |  |  | 100 | 100 | 100 | inhibition at 50 µM ([1]; read-out: % inhibition Topo IV): 100%
5 | O=c1cc(NCC(O)CN2CCN(c3nccc4ncccc34)CC2)c2cc(F)ccc2o1 (centres unmarked) [Compound 166, 6-fluoro-4-({2-hydroxy-3-[4-(1,6-naphthyridin-5-yl)piperazin-1-yl]propyl}amino)-2H-1-benzopyran-2-one] | 0.2 | 1.13 | 0.15 | 90 | 70 | 80 | IC50 [1, 5]: 0.3 µM; inhibition at 50 µM ([1]; read-out: % inhibition Topo IV): 97%
6 | O=c1nc(NCC(O)CN2CCN(c3nccc4ncc(C(F)(F)F)cc34)CC2)c2cc(F)ccc2o1 (centres unmarked) [Compound 163, 6-fluoro-4-[(2-hydroxy-3-{4-[3-(trifluoromethyl)-1,6-naphthyridin-5-yl]piperazin-1-yl}propyl)amino]-2H-1,3-benzoxazin-2-one] | 9.89 | 82.7 | 4.4 | 90 | 30 | 80 | inhibition at 50 µM [1, 6]: 100%; IC50 [1, 5]: 1.22 µM
7 | O=c1oc2ccc(F)cc2c2cc(CNC3CCN(c4nccc5ncccc45)CC3)[nH]c12 [Compound 187, 8-fluoro-2-({[1-(1,6-naphthyridin-5-yl)piperidin-4-yl]amino}methyl)[1]benzopyrano[3,4-b]pyrrol-4(3H)-one] | 1.57 | 0.16 | 0.19 | 82 | 95 | 79 | IC50 [1]: 1.37 µM; inhibition at 50 µM [1, 6]: 95%
8 | O=c1cc(NCCNC2CCN(c3nccc4ccc(F)cc34)CC2)c2cc(F)ccc2o1 [Compound 131, 6-fluoro-4-[(2-{[1-(7-fluoroisoquinolin-1-yl)piperidin-4-yl]amino}ethyl)amino]-2H-chromen-2-one] |  |  |  | 100 | 81 | 100 | inhibition at 50 µM [1, 6]: 78%
9 | O=c1oc2ccc(F)cc2c2cc(CNC3CCN(c4nccc5nccnc45)CC3)[nH]c12 [Compound 196, 8-fluoro-2-({[1-(pyrido[3,4-b]pyrazin-5-yl)piperidin-4-yl]amino}methyl)[1]benzopyrano[3,4-b]pyrrol-4(3H)-one] | 2.54 | 0.16 | 0.79 | 100 | 83 | 85 | IC50 [1]: 0.39 µM; inhibition at 50 µM ([1]; read-out: % inhibition Topo IV): 89%
10 | O=c1nc(NCC(O)CN2CCN(c3nccc4nccnc34)CC2)c2cc(F)ccc2o1 (centres unmarked) [Compound 156, 6-fluoro-4-((2-hydroxy-3-(4-(pyrido[3,4-b]pyrazin-5-yl)piperazin-1-yl)propyl)amino)-2H-benzo[e][1,3]oxazin-2-one] | 0.64 | 1.76 | 2.74 | 91 | 89 | 78 | inhibition at 50 µM [1, 6]: 86%; IC50 [1, 5]: 1.25 µM
11 | [O-][n+]1ccc2ccc(F)cc2c1Cl [Compound 100, 1-chloro-7-fluoroisoquinolin-2-ium-2-olate] |  |  |  |  |  |  | % inhibition Topo IV (E. coli Topoisomerase IV; E. coli, conc. 50 μM): 76%; IC50 (E. coli Topoisomerase IV; [2]): 10.2 µM; % inhibition DNA gyrase (S. aureus DNA gyrase; S. aureus, conc. 50 μM): 91%; IC50 (S. aureus DNA gyrase; [3]): 4.7 µM; % inhibition DNA gyrase (E. coli DNA gyrase; E. coli, conc. 50 μM): 95%; IC50 (E. coli DNA gyrase; [4]): 4.5 µM
12 | O=c1cc(N[C@H]2C[C@H](N3CCN(c4nccc5ccccc45)CC3)C2)c2ccccc2o1 [Compound 55, trans-4-({3-[4-(isoquinolin-1-yl)piperazin-1-yl]cyclobutyl}amino)-2H-chromen-2-one] | 2.6 | 5.6 | 2.1 |  |  |  | inhibition at 100 µM (E. coli Topoisomerase IV; E. coli, conc. 100 μM): 95%; inhibition at 100 µM (S. aureus DNA gyrase; S. aureus, conc. 100 μM): 86%; inhibition at 100 µM (E. coli DNA gyrase; E. coli, conc. 100 μM): 94%
13 | O=c1cc(NCCCN2CCN(c3nccc4cccnc34)CC2)c2ccccc2o1 [Compound 61, 4-({3-[4-(1,7-naphthyridin-8-yl)piperazin-1-yl]propyl}amino)-2H-chromen-2-one] | 20.2 | 8.7 | 3.3 |  |  |  | inhibition at 100 µM (E. coli Topoisomerase IV; E. coli, conc. 100 μM): 92%; inhibition at 100 µM (S. aureus DNA gyrase; S. aureus, conc. 100 μM): 88%; inhibition at 100 µM (E. coli DNA gyrase; E. coli, conc. 100 μM): 92%
14 | C[N+]1(CCCNc2cc(=O)oc3ccccc23)CCN(c2nccc3ccccc23)CC1 [Compound 124, 4-(isoquinolin-1-yl)-1-methyl-1-{3-[(2-oxo-2H-chromen-4-yl)amino]propyl}piperazin-1-ium iodide] | 6 | 9 | 7 | 62 | 75 | 79 | 
